% binding, % of inhibition and % of control data for 5 compounds are collected here from ChEMBL document CHEMBL5465560, “Selectivity Literature for EUbOPEN Chemogenomic Library” (2024).

The target in test [1] is T1, Phosphatidylinositol 4,5-bisphosphate 3-kinase catalytic subunit delta isoform (Homo sapiens) (UniProt O00329).
T1 sequence (whole entry): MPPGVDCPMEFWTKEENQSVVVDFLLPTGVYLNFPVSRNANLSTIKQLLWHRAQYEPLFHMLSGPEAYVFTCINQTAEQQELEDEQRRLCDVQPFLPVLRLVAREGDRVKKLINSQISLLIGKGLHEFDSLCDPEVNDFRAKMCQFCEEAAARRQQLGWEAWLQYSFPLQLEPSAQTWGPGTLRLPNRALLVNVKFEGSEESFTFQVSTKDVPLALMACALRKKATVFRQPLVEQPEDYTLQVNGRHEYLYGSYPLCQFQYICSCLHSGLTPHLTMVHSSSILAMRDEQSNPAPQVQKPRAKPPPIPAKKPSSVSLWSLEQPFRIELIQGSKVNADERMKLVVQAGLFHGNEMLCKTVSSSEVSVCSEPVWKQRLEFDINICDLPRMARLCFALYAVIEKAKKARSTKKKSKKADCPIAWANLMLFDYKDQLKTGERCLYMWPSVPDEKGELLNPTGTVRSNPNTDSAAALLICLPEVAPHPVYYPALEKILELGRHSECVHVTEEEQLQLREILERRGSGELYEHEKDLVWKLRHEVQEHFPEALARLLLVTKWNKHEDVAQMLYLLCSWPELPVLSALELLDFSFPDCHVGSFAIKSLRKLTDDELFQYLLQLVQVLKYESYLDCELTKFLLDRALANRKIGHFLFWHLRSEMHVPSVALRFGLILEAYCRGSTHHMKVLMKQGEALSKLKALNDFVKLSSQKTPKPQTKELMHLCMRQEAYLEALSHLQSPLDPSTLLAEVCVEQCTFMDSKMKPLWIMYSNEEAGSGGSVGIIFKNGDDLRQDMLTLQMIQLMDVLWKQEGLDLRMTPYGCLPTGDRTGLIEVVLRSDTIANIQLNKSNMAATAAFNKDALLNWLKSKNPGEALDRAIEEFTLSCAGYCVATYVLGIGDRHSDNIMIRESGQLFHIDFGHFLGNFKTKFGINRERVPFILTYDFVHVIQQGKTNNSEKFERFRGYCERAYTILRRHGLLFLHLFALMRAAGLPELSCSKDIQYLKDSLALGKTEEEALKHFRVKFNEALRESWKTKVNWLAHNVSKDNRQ
Briefly: Selectivity interaction (KinomeScan (DiscoverX)) EUB0000229b PIK3CD. The conditions noted are these: at 10 µM.

For test [2], the target named is STE20-like serine/threonine-protein kinase (Homo sapiens, UniProt Q9H2G2). Briefly: Selectivity interaction (KinomeScan (DiscoverX)) EUB0000229b SLK. The conditions noted are these: at 10 µM.
Test [3] has as its target T2, PAN2-PAN3 deadenylation complex subunit PAN3 (Homo sapiens) (UniProt Q58A45).
T2 sequence (whole entry): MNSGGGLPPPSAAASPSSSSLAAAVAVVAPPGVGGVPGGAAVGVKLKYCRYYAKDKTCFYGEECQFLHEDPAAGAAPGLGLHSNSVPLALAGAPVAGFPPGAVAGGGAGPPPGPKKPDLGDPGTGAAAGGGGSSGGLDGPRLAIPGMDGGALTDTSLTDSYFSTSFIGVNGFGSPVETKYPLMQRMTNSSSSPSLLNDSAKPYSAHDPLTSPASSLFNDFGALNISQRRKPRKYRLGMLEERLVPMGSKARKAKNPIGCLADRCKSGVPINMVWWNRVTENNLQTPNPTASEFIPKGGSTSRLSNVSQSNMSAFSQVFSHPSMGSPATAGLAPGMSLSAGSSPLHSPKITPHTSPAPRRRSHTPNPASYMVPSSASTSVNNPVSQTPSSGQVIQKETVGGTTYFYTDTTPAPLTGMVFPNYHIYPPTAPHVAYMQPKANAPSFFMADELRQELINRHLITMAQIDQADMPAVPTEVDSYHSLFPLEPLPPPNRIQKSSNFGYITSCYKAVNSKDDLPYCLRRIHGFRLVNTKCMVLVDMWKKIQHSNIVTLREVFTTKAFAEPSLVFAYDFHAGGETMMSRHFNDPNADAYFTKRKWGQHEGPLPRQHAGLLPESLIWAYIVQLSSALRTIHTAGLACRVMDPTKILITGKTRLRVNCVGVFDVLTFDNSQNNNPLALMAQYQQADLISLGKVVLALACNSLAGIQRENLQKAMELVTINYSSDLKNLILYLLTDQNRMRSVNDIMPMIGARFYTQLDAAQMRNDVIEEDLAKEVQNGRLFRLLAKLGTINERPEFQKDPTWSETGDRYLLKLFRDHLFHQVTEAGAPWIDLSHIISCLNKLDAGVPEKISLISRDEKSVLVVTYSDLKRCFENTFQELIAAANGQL
The test is described as follows: Selectivity interaction (ActivX KiNativ screen (kinase selectivity in THP-1 cell lysates)) EUB0000639a PAN3. The test is classed as subcellular. The conditions noted are these: lysate.

Test [4] deals with Rho-associated protein kinase 1 (Homo sapiens) (UniProt Q13464). Briefly: Selectivity interaction (KinomeScan (DiscoverX)) EUB0000092b ROCK1. Particulars: at 10 µM.
For test [5], the target named is T3, cGMP-dependent protein kinase 2 (Homo sapiens) (UniProt Q13237).
T3 sequence (whole entry): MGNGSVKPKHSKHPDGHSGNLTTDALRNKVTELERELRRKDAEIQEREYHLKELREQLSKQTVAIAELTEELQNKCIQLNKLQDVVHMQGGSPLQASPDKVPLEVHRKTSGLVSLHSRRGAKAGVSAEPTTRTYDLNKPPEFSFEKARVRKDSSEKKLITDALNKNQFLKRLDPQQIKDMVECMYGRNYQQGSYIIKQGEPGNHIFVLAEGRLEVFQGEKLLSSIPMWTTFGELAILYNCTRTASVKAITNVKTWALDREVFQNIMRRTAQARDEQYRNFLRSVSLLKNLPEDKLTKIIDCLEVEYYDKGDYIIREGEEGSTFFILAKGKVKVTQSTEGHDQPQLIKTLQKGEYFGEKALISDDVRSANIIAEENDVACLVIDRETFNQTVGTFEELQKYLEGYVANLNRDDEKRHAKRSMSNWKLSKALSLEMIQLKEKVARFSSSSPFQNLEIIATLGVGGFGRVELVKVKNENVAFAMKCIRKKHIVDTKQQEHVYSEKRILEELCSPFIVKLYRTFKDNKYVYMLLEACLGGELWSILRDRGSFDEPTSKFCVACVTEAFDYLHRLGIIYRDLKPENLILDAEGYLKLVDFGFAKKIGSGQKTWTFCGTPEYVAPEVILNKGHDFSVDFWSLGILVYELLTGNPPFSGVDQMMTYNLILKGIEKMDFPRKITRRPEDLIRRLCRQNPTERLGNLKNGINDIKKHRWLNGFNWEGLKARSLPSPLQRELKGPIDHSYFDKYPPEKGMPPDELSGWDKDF
The test is described as follows: Selectivity interaction (KinomeScan (DiscoverX)) EUB0000618a PRKG2. Particulars: at 10 µM.

In test [6] the target is Serine/threonine-protein kinase PLK2 (Homo sapiens, UniProt Q9NYY3). The test is described as follows: Selectivity interaction (Upstate Kinase Profiler service (Millipore)) EUB0000056c PLK2. The conditions noted are these: at 1 µM.
Chain of Serine/threonine-protein kinase PLK2 (Q9NYY3 whole entry, looked up): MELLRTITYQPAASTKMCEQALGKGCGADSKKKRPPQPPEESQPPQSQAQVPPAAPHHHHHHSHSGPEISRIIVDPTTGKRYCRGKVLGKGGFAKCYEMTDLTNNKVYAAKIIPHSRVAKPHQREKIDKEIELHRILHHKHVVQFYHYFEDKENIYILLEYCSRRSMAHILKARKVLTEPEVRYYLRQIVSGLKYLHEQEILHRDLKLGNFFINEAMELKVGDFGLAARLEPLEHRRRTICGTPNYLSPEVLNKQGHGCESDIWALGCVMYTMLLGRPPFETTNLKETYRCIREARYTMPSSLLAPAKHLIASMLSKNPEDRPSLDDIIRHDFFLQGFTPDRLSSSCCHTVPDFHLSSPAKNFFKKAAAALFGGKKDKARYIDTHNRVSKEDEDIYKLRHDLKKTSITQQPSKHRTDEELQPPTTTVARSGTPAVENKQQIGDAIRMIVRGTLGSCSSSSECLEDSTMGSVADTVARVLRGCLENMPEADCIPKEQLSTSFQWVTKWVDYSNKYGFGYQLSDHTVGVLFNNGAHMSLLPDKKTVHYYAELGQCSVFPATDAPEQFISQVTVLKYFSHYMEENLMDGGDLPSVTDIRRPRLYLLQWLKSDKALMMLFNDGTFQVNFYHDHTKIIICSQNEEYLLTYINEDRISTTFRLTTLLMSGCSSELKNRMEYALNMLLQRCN

Chain of STE20-like serine/threonine-protein kinase (Q9H2G2 whole entry, looked up): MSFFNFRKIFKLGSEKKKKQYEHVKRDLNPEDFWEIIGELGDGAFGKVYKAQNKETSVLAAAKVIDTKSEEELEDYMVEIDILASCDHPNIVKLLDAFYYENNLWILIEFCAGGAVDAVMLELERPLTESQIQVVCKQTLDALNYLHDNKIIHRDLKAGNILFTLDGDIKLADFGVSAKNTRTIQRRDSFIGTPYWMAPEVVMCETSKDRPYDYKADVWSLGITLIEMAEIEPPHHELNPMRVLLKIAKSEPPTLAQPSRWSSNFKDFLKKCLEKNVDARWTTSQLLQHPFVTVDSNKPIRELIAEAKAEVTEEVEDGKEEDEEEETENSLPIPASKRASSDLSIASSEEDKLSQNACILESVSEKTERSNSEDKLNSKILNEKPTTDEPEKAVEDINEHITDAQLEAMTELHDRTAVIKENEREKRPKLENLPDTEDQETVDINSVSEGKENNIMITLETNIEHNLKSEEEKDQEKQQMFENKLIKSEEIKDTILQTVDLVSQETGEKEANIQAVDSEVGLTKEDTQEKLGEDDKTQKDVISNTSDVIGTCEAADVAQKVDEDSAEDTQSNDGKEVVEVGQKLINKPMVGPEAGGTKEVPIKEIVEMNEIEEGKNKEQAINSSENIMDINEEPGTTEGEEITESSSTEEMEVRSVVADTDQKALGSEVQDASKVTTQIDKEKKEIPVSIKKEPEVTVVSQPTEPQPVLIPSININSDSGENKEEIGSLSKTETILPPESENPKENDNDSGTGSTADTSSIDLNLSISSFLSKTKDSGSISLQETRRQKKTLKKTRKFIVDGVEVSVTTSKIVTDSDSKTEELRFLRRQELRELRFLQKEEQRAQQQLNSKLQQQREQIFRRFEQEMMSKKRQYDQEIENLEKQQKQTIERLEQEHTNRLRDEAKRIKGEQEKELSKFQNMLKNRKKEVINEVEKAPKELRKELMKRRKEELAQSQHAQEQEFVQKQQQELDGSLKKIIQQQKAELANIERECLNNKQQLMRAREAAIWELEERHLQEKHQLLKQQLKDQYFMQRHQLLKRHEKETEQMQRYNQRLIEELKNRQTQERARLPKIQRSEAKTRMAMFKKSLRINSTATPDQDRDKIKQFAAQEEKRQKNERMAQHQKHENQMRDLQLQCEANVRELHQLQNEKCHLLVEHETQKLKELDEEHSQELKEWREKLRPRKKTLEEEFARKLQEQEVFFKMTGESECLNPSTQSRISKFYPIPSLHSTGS
Chain of Rho-associated protein kinase 1 (Homo sapiens) (Q13464 2-1354 limits assumed): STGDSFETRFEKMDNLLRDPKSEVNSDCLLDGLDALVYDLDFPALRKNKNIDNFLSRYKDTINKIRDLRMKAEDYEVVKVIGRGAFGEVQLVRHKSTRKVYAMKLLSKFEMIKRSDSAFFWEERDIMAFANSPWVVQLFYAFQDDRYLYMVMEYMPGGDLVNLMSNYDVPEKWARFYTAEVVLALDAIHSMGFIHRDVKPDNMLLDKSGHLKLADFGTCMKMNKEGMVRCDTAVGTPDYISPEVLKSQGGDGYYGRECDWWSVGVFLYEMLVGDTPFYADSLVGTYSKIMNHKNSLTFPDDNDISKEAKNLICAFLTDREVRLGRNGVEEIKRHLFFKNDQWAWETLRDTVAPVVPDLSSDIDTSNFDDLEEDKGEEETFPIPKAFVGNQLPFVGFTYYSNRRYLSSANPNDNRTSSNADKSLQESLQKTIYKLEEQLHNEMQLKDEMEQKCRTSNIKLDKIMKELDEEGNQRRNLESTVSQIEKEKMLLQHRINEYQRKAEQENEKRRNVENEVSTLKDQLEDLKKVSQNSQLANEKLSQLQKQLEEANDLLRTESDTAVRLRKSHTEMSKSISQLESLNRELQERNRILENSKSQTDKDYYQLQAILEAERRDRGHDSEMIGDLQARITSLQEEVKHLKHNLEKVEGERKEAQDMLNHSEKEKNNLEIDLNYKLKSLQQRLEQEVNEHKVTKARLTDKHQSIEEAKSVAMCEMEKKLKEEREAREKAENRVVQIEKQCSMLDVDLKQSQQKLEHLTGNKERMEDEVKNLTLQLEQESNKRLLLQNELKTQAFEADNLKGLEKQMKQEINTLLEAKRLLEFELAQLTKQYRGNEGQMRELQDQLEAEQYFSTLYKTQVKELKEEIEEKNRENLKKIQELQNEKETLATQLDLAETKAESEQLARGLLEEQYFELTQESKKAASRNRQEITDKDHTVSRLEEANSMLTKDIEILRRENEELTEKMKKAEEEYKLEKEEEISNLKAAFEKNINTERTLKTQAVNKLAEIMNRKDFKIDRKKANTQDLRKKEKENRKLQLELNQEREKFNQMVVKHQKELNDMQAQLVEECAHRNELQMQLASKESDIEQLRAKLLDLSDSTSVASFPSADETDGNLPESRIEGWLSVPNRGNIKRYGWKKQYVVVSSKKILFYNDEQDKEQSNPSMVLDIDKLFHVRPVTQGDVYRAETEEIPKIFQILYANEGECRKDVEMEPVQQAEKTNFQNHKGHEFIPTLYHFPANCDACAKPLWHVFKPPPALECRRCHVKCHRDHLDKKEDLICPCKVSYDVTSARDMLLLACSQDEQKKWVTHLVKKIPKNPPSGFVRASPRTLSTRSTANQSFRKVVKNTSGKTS

As for `COc1cc(N(C)c2ccnc3ccc(C(F)(F)F)cc23)cc(OC)c1OC`, the % binding in test [1] worked out at 86%; in test [2], 31%.
Take `CC[C@@H]1[C@H](F)C(=O)N[C@@H]1COc1nccc2cc(C(N)=O)c(OC)cc12` [ZIMLOVISERTIB]: the % of inhibition in test [3] (at 0.01 µM) is 20.4%; in test [3] (at 0.04 µM), -4.3%; in test [3] (at 0.2 µM), -4.4%; in test [3] (at 1 µM) it was -2.8%; in test [3] (at 5 µM), -19.6%.
Turning to `CCC(=O)N1CCN(c2ccc(-n3c(=O)ccc4cnc5ccc(-c6cnc7ccccc7c6)cc5c43)cc2C(F)(F)F)CC1`, the % of control in test [4] turned out to be 53%.
Consider `O[C@H]1CC[C@H](Nc2ncc3nc(Nc4c(F)cc(F)cc4F)n([C@H]4CCOC4)c3n2)CC1`, for which, in test [5], the % of control came to 100%.
Take `Cc1ccc(-c2ccc3c(ccc4sc5c(c43)NC[C@@H](C)NC5=O)n2)cn1`: in test [6], the % of inhibition was -19%.
